Laboratory results from patent US8785425B2, “11β-hydroxyandrosta-4-ene-3-ones” (Sun Pharma Advanced Research Company Ltd., priority 2006, dated 2014).
Marks after values point to notes of the source that are not given here.

Legend:
[1] = tested on: cotton pellet induced granuloma; test: Cotton pellet granuloma (compound impregnated in pellet); type: in vivo; details: SD rats
Description: SD rats were used for assessing anti-inflammatory activity of test compound using cotton pellet granuloma method. Sterilized cotton pellets weighing 20 mg were prepared. Test compounds were dissolved in acetone so as to get the required quantity for each cotton pellet in 500 μl. Different pellets were impregnated with 500 μl of acetone to contain required quantity of test compounds and allowed to dry. Vehicle control pellets were impregnated with 500 μl acetone. Rats were made into different groups. Two cotton pellets were surgically implanted into the scapular region of each rat. On sixth day of such implantation, pellets along with granuloma were taken out. Thymus gland was also separated from each animal and weighed. The pellets with granuloma were dried for 20 hrs at 60° C. and weighed. Mean weights of dry granuloma and thymus, body weight gain/100 g body weights were calculated.

glucocorticoid receptors = molecular target: T1, glucocorticoid receptors (Homo sapiens, UniProt P04150); test: Glucocorticoid receptor binding assay ([3H]dexamethasone radioligand); details: HeLa cells transfected with glucocorticoid receptors
T1 construct: host or cells: Human HeLa cells
T1 sequence (P04150 1-777): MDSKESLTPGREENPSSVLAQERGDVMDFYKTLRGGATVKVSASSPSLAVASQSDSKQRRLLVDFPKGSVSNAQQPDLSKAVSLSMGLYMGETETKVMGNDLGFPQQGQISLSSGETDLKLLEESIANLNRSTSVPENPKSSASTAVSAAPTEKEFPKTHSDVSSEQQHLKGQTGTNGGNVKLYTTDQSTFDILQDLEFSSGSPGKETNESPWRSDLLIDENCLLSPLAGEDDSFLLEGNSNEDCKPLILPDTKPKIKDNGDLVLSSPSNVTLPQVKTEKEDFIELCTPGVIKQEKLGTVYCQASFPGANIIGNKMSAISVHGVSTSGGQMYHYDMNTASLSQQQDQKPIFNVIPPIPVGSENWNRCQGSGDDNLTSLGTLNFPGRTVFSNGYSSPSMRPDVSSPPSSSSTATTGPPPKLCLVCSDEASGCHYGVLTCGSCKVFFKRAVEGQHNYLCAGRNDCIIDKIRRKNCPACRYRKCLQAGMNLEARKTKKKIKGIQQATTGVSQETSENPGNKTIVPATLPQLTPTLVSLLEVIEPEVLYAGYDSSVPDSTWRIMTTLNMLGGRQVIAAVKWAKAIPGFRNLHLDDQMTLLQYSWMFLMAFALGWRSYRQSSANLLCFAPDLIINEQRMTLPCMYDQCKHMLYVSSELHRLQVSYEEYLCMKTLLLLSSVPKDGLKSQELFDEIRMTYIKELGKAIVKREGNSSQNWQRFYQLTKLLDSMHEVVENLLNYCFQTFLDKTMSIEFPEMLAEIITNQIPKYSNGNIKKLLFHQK
Description: The steroid receptor binding assay were performed by MDS Pharma Services at their Taipei (Taiwan) pharmacology laboratory.
The activity of test compounds on glucocorticoid receptor was assessed using radioligand binding assays. […] Free [^3H]dexamethasone was removed from the medium by centrifugation and concentration of receptor bound ligand was determined in the supernatant by liquid scintillation counting.
The % inhibition was evaluated using a single concentration of test compound and the corresponding radiolabeled ligand. Results are presented as the percent inhibition of specific binding. The values are average of duplicate determinations for each concentration.

[2] = tested on: croton oil induced ear edema; test: Croton oil ear edema; type: in vivo, Mice (male, CD-1); details: inhibition at 1.6 μg, applied to ear, mice
Description: Mice (male, CD-1) were made into different groups. Test compounds were dissolved in pyridine-water-acetone (4:2:14) solution […] of compound or vehicle solution was applied to the left ear of the mice. The right ear of each mouse was applied simultaneously with 10 μl of pyridine:water:acetone (4:2:14) solution. After 2 hrs of compound or vehicle application, 10 μl of croton oil solution was applied to the left ear of all animals. After 6 hr of croton oil treatment the animals were sacrificed; ears were excised and weighed separately.

[3] = tested on: Sephadex induced lung edema; test: in vivo; details: SD rat
Description: Sephadex G-200 was prepared in sterile saline (10 mg/ml) and allowed to swell for at least 3 days at room temperature. Test compounds were prepared as suspensions by grinding and sonicating the solid in chilled saline. All the compounds were administered intratracheally at 24 hrs and 2 hrs prior to intratracheal administration of Sephadex (5 mg/kg) under light ether anesthesia. Vehicle control animals were administered vehicle instead of Sephadex. At 24 hr after Sephadex instillation, lung and thymus were excised from individual animals and weighed. Wet weight of lung and thymus was corrected for 100 g of initial body weight. The percentage increase in lung weight caused by Sephadex and its inhibitions by the compounds, were calculated. The percentage inhibitions of thymus compared to vehicle control group were also calculated.

[4] = tested on: liver glycogen deposition; type: in vivo, Male Sprague Dawley rats; details: 3 mg/kg intratracheally, 2 doses 24 hrs apart, adrenalectomized rats
Description: Male Sprague Dawley rats, weighing 190-220 g were bilaterally adrenalectomized and maintained on 0.9% saline solution throughout the experiment. On day 5th and 6th of adrenalectomy, animals were made into different groups, test compounds prepared in cold saline (sonicated for 30 min) were instilled intratracheally 2 doses@3 mg/kg, 24 hrs apart. At 15 hrs after the last treatment, animals were sacrificed and livers were excised and weighed. The glycogen content of the livers was determined by anthrone method. Briefly, a weighed quantity of liver tissue was homogenized with 5% trichloroacetic acid, supernatant mixed with ethanol and kept overnight for precipitation. The glycogen thus extracted was estimated as glucose generated after acid hydrolysis by addition of anthrone reagent at 620 nm. Glycogen content was expressed as mg/100 g liver.

6α,9α-Difluoro-11β-hydroxy-16α-methyl-3-oxo-17α-propionyloxyandrosta-1,4-diene-17β-carbonylsulfenic acid (4-trifluoromethylphenyl)methyl eseter. [IC.8]
Mean % Inhibition of Granuloma ([1]; dose 3 mcg per pellet): 45.15% | Thymus wt. (% Decrease) ([1]; dose 3 mcg per pellet): 3.38%

CCC(=O)O[C@]1(C(=O)SCC#CCO)[C@H](C)CC2C3C[C@H](F)C4=CC(=O)C=C[C@]4(C)[C@@]3(F)[C@@H](O)C[C@@]21C (stereo partly drawn) [IB.2, S-(4-Hydroxy-but-2-ynyl) 6α,9α-difluoro-11β-hydroxy-16α-methyl-3-oxo-17α-propionyloxyandrosta-1,4-diene-17β-carbothioate]
inhibition at 0.003 µM (glucocorticoid receptors; % inhibition at 3 nM): 55%

C[C@@H]1CC2C3C[C@H](F)C4=CC(=O)C=C[C@]4(C)[C@@]3(F)[C@@H](O)C[C@]2(C)[C@@]1(OC(=O)c1ccco1)C(=O)SCC#CCOC(=O)N(C)C (stereo partly drawn) [IB.103, S-[4-(N,N-Dimethylaminocarbonyloxy)-but-2-ynyl]6α,9α-difluoro-17α-[(2-furanyl-carbonyl)oxy]-11β-hydroxy-16α-methyl-3-oxoandrosta-1,4-diene-17β-carbothioate]
inhibition at 0.01 µM (glucocorticoid receptors; % inhibition at 10 nM): 78%

CCC(=O)O[C@]1(C(=O)SC)[C@H](C)C[C@H]2[C@@H]3C[C@H](F)C4=CC(=O)C=C[C@]4(C)[C@@]3(F)[C@@H](O)C[C@@]21C [IC.13, 6α,9α-Difluoro-11β-hydroxy-16α-methyl-3-oxo-17α-propionyloxyandrosta-1,4-diene-17β-carbonylsulfenic acid methyl ester.]
Mean % Inhibition (croton oil ear edema) [2]: 41.79^a %

COSC(=O)C1(OC(=O)c2ccco2)C(C)CC2C3CC(F)C4=CC(=O)C=CC4(C)C3(F)C(O)CC21C (stereo not drawn) [IC.14, 6α,9α-Difluoro-17α-[(2-furanylcarbonyl)oxy]-11β-hydroxy-16α-methyl-3-oxoandrosta-1,4-diene-17β-carbonylsulfenic acid methyl ester]
Mean % Inhibition (croton oil ear edema) [2]: 61.46^a %

CCOC(=O)C(=O)OC/C=C/CSC(=O)[C@@]1(OC(=O)CC)[C@H](C)CC2C3C[C@H](F)C4=CC(=O)C=C[C@]4(C)[C@@]3(F)[C@@H](O)C[C@@]21C (stereo partly drawn) [IB.44, S-[4-(2-Ethoxy-1,2-dioxoethyl)oxy-(E)-but-2-enyl]6α,9α-difluoro-11β-hydroxy-16α-methyl-3-oxo-17α-propionyloxyandrosta-1,4-diene-17β-carbothioate]
Mean % Inhibition (croton oil ear edema) [2]: 75.19^a %

CCC(=O)O[C@]1(C(=O)SCC(=O)c2ccc(C(F)(F)F)cc2)[C@H](C)CC2C3C[C@H](F)C4=CC(=O)C=C[C@]4(C)[C@@]3(F)[C@@H](O)C[C@@]21C (stereo partly drawn) [IA.38, S-[2-Oxo-2-(4-trifluoromethylphenyl)ethyl]6α,9α-difluoro-11β-hydroxy-16α-methyl-3-oxo-17α-propionyloxyandrosta-1,4-diene-17β-carbothioate]
Mean % Inhibition of Granuloma ([1]; dose 10 mcg per pellet): 67.17%

CCCCC(=O)OCC#CCSC(=O)[C@@]1(OC(=O)CC)[C@H](C)CC2C3C[C@H](F)C4=CC(=O)C=C[C@]4(C)[C@@]3(F)[C@@H](O)C[C@@]21C (stereo partly drawn) [IB.35, S-[4-n-Butylcarbonyloxy-but-2-ynyl]6α,9α-difluoro-11β-hydroxy-16α-methyl-3-oxo-17α-propionyloxyandrosta-1,4-diene-17β-carbothioate]
Mean % Inhibition (croton oil ear edema) [2]: 60.18^a %

CC1CC2C3CCC4=CC(=O)C=CC4(C)C3(F)C(O)CC2(C)C1(OC(=O)c1ccco1)C(=O)SOCc1ccc(F)cc1 (stereo not drawn) [IC.9, 9α-Fluoro-17α-[(2-furanylcarbonyl)oxy]-11β-hydroxy-16α-methyl-3-oxoandrosta-1,4-diene-17β-carbonylsulfenic acid (4-fluorophenyl)methyl ester.]
Mean % Inhibition of Granuloma ([1]; dose 3 mcg per pellet): 34.3% | Thymus wt. (% Decrease) ([1]; dose 3 mcg per pellet): 2.51%

CCC(=O)O[C@]1(C(=O)SC(C)(C)C(=O)c2ccccc2)[C@H](C)CC2C3C[C@H](F)C4=CC(=O)C=C[C@]4(C)[C@@]3(F)[C@@H](O)C[C@@]21C (stereo partly drawn) [IA.59, S-[1,1-Dimethyl-2-oxo-2-phenylethyl]6α,9α-difluoro-11β-hydroxy-16α-methyl-3-oxo-17α-propionyloxyandrosta-1,4-diene-17β-carbothioate]
Mean % Inhibition of Granuloma ([1]; dose 1000 mcg per pellet): 76.86%

CCC(=O)O[C@]1(C(=O)OCC(=O)c2ccccc2)[C@H](C)CC2C3C[C@H](F)C4=CC(=O)C=C[C@]4(C)[C@@]3(F)[C@@H](O)C[C@@]21C (stereo partly drawn) [IA.44, 2-Phenyl-2-oxoethyl 6α,9α-difluoro-11β-hydroxy-16α-methyl-3-oxo-17α-propionyloxyandrosta-1,4-diene-17β-carboxylate]
Mean % Inhibition of Granuloma ([1]; dose 1000 mcg per pellet): 71.79%

C[C@@H]1CC2C3C[C@H](F)C4=CC(=O)C=C[C@]4(C)[C@@]3(F)[C@@H](O)C[C@]2(C)[C@@]1(OC(=O)c1ccco1)C(=O)SC/C=C\CO (stereo partly drawn) [IB.15, S-(4-Hydroxy-(Z)-but-2-enyl) 6α,9α-difluoro-17α-[(2-furanylcarbonyl)oxy]-11β-hydroxy-16α-methyl-3-oxoandrosta-1,4-diene-17β-carbothioate]
Mean % inhibition Lung edema ([3]; dose 1000 mcg/kg intratracheally): 70.3% | Mean % inhibition Lung edema ([3]; dose 3000 mcg/kg intratracheally): 71.1% | inhibition at 0.01 µM (glucocorticoid receptors; % inhibition at 10 nM): 83%

CC1CC2C3CC(F)C4=CC(=O)C=CC4(C)C3(F)C(O)CC2(C)C1(OC(=O)c1ccco1)C(=O)SOCc1ccc(Cl)cc1 (stereo not drawn) [IC.7, 6α,9α-Difluoro-17α-[(2-furanylcarbonyl)oxy]-11β-hydroxy-16α-methyl-3-oxoandrosta-1,4-diene-17β-carbonylsulfenic acid (4-chlorophenyl)methyl ester.]
Glucocorticoid receptor binding % inhibition (glucocorticoid receptors; % inhibition at 10 nM): 41^b %

CC1CC2C3CC(F)C4=CC(=O)C=CC4(C)C3(F)C(O)CC2(C)C1(OC(=O)c1ccco1)C(=O)SOCc1ccc(C(F)(F)F)cc1 (stereo not drawn) [IC.6, 6α,9α-Difluoro-17α-[(2-furanylcarbonyl)oxy]-11β-hydroxy-16α-methyl-3-oxoandrosta-1,4-diene-17β-carbonylsulfenic acid (4-trifluoromethylphenyl)methyl ester.]
Mean % Inhibition of Granuloma ([1]; dose 1000 mcg per pellet): 84.96% | Thymus wt. (% Decrease) ([1]; dose 1000 mcg per pellet): 10.96%

C[C@@H]1C[C@H]2[C@@H]3CCC4=CC(=O)C=C[C@]4(C)[C@@]3(Cl)[C@@H](O)C[C@]2(C)[C@@]1(OC(=O)c1ccco1)C(=O)CCl [Mometasone furoate, (11β,16α)-9,21-Dichloro-17-[(2-furanylcarbonyl)oxy]-11-hydroxy-16-methylpregna-1,4-diene-3,20-dione]
% Inhibition of thymus [4]: 43.51% | Glycogen content [4]: 1117.32 mg/100 g liver
